Legend:
[1] = system: HL-60, human proleukemia cells; experiment: Cell-MTS proliferation assay, HL-60; assay type: cell-based; conditions: Homo sapiens, 168 hr
Method: (§1) The Cell-MTS assay is a 7-day plate-based colorimetric assay which quantifies the amount of newly generated NADH in the presence or absence of test compound. The NADH level is used for the quantification of cancer cell proliferation.
(§2) Established cancer cell lines with a variety of driving mutations were obtained from American Type Culture Collection (ATCC) and routinely passaged according to ATCC protocols. For routine assay, these cells were seeded at densities which enabled ˜90% confluence after 7 days of culture. Raji, human Burkitts lymphoma cells, (cMYC) were seeded at 15,000 cells per 96-well. HL-60, human proleukemia cells, (NRAS, p16, p53, c-Myc amplified) were seeded at 5,000 cells per 96-well. NCI-H460, human non-small cell lung cancer cells, (KRAS, PIK3CA, STLK11, p16) were seeded at 3,000 cells per 96-well. 24 hr after plating, cells received an 11-point dilution of test compound with final concentration ranges from 100 μM to 2.0 nM. […] At the end of this incubation period, 80 μL of media is removed and 20 μL of CellTiter 96® AQueous Non-Radioactive Cell Proliferation Assay soln (Promega) was added. The cells were incubated until the OD490 was >0.6. IC50 values were calculated using the IDBS XLfit software package and include background subtracted OD490 values and normalization to DMSO controls. Cellular proliferation IC50 values were uploaded and archived using the Chem Biography Platform.

[2] = system: Raji, human Burkitts lymphoma cells; experiment: Cell-MTS proliferation assay, Raji; assay type: cell-based; conditions: Homo sapiens, 168 hr
Summary of the method: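 Seeded for ~90% confluence at 7 days (Raji 15,000, HL-60 5,000, NCI-H460 3,000 cells/well); compound added 24 h post-plating as 11-point dilution, 100 μM to 2.0 nM final.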

BRD4(BD1) = BRD4(BD1) (Homo sapiens (Human), UniProt O60885); experiment: In vitro enzyme inhibition assay (BRD4 AlphaScreen); assay type: binding
Summary of the method: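 His-tagged BRD4 tested by AlphaScreen for binding of biotinylated H4K5/8/12/16-tetraacetyl peptide. After 20 min at room temperature, streptavidin donor and nickel chelate acceptor beads added (5 μg/mL final each). IC50 determined.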

[3] = system: NCI-H460, human non-small cell lung cancer cells; experiment: Cell-MTS proliferation assay, NCI-H460; assay type: cell-based; conditions: Homo sapiens, 168 hr
Method: as §1, §2

[4] = Cell-MTS proliferation, HL-60 cells
[5] = Cell-MTS proliferation, Raji cells
[6] = in vitro enzyme inhibition assay
[7] = Cell-MTS proliferation, NCI-H460 cells
[8] = NCI-H460, Cell-MTS proliferation
[9] = HL-60, Cell-MTS, class symbols A/B/C
[10] = Raji, Cell-MTS, class symbols A/B/C
[11] = NCI-H460, Cell-MTS, class symbols A/B/C

Row | Structure (SMILES) | IC50 [1, 4] | IC50 [2, 5] | IC50 (BRD4(BD1); [6]) | IC50 [3, 7] | IC50 ([1]; HL-60, Cell-MTS proliferation) | IC50 ([2]; Raji, Cell-MTS proliferation) | IC50 [3, 8] | IC50 [1, 9] | IC50 [2, 10] | IC50 (BRD4(BD1); class symbols A/B/C) | IC50 [3, 11]
1 | Cn1cc(-c2cc(CS(C)(=O)=O)ccc2OCC(F)(F)F)c2ccccc2c1=O [Example 488, 2-methyl-4-[5-(methylsulfonylmethyl)-2-(2,2,2-trifluoroethoxy)phenyl]isoquinolin-1-one] | < 500 nM | < 500 nM | < 500 nM | > 5 µM | – | – | – | – | – | – | –
2 | Cn1cc(-c2nc(S(C)(=O)=O)ccc2OCC2CC2)c2ccccc2c1=O [Example 199, 4-[3-(cyclopropylmethoxy)-6-methylsulfonylpyridin-2-yl]-2-methylisoquinolin-1-one] | – | – | < 500 nM | – | < 500 nM | < 500 nM | > 5 µM | – | – | – | –
3 | CCS(=O)(=O)Nc1ccc(Oc2ccc(F)cc2F)c(-c2cn(C)c(=O)c3ccoc23)c1 [Example 379, N-[4-(2,4-difluorophenoxy)-3-(5-methyl-4-oxofuro[3,2-c]pyridin-7-yl)phenyl] ethanesulfonamide] | < 500 nM | < 500 nM | < 500 nM | > 5 µM | – | – | – | – | – | – | –
4 | CCS(=O)(=O)c1ccc(OCC#CC2CC2)c(-c2cc(OC)c(=O)n(C)c2)c1 [Example 391, 5-[2-(3-cyclopropylprop-2-ynoxy)-5-ethylsulfonylphenyl]-3-methoxy-1-methylpyridin-2-one] | < 500 nM | 500 to 5000 nM | < 500 nM | > 5 µM | – | – | – | – | – | – | –
5 | Cc1cc(-c2nc(NS(C)(=O)=O)ncc2OCC2CC2)cn(C)c1=O [Example 153, N-[5-(cyclopropylmethoxy)-4-(1,5-dimethyl-6-oxopyridin-3-yl)pyrimidin-2-yl]methanesulfonamide] | – | – | < 500 nM | – | 500 to 5000 nM | 500 to 5000 nM | > 5 µM | – | – | – | –
6 | Cc1cc(-c2cc(S(C)(=O)=O)ccc2OCC2CC2)cn(CC2CC2)c1=O [Example 242, 5-[2-(cyclopropylmethoxy)-5-methylsulfonylphenyl]-1-(cyclopropylmethyl)-3-methylpyridin-2-one] | – | – | < 500 nM | – | < 500 nM | 500 to 5000 nM | > 5 µM | – | – | – | –
7 | CCS(=O)(=O)Nc1ccc(Oc2ccc(F)cc2F)c(-c2cn(C)c(=O)c3cncn23)c1 [Example 129, N-[4-(2,4-difluorophenoxy)-3-(7-methyl-8-oxoimidazo[1,5-a]pyrazin-5-yl)phenyl]ethanesulfonamide] | – | – | – | – | – | – | – | < 500 nM | < 500 nM | < 500 nM | > 5 µM
8 | Cn1cc(-c2cc(S(C)(=O)=O)ccc2OCC2CC2)c2occc2c1=O [Example 377, 7-[2-(cyclopropylmethoxy)-5-methylsulfonylphenyl]-5-methylfuro[3,2-c]pyridin-4-one] | < 500 nM | < 500 nM | < 500 nM | > 5 µM | – | – | – | – | – | – | –
9 | Cn1cc(-c2nc(CS(C)(=O)=O)ncc2OCC2CC2)c2ccccc2c1=O [Example 143, 4-[5-(cyclopropylmethoxy)-2-(methylsulfonylmethyl)pyrimidin-4-yl]-2-methylisoquinolin-1-one] | – | – | < 500 nM | – | 500 to 5000 nM | 500 to 5000 nM | > 5 µM | – | – | – | –
10 | CCS(=O)(=O)Nc1cc(-c2cn(C)c(=O)c3ccc(-c4cnn(C)c4)cc23)c(OC)cc1F [Example 86, N-[2-fluoro-4-methoxy-5-[2-methyl-6-(1-methylpyrazol-4-yl)-1-oxoisoquinolin-4-yl]phenyl]ethanesulfonamide] | – | – | – | – | – | – | – | < 500 nM | < 500 nM | < 500 nM | 0.5 to 5 µM
11 | Cn1cc(-c2cc(S(C)(=O)=O)cnc2OCC2CC2)c2ccccc2c1=O [Example 321, 4-[2-(cyclopropylmethoxy)-5-methylsulfonylpyridin-3-yl]-2-methylisoquinolin-1-one] | – | – | < 500 nM | – | < 500 nM | < 500 nM | > 5 µM | – | – | – | –
12 | CC#CCOc1ccc(S(=O)(=O)CC)cc1-c1cc(OC)c(=O)n(C)c1 [Example 389, 5-(2-but-2-ynoxy-5-ethylsulfonylphenyl)-3-methoxy-1-methylpyridin-2-one] | < 500 nM | 500 to 5000 nM | < 500 nM | > 5 µM | – | – | – | – | – | – | –
13 | CCS(=O)(=O)c1ccc(OCC2CC2)c(-c2cn(C)c(=O)c3ccc(F)cc23)c1 [Example 174, 4-[2-(cyclopropylmethoxy)-5-ethylsulfonylphenyl]-6-fluoro-2-methylisoquinolin-1-one] | – | – | < 500 nM | – | < 500 nM | < 500 nM | > 5 µM | – | – | – | –
14 | Cc1cc(-c2cc(S(C)(=O)=O)ccc2OC2CCC(F)(F)CC2)cn(C)c1=O [Example 415, 5-[2-(4,4-difluorocyclohexyl)oxy-5-methylsulfonylphenyl]-1,3-dimethylpyridin-2-one] | < 500 nM | < 500 nM | < 500 nM | > 5 µM | – | – | – | – | – | – | –
15 | CNc1cc(-c2ccc(OC)c(NS(C)(=O)=O)c2)cn(C)c1=O [Example 110, N-[2-methoxy-5-[1-methyl-5-(methylamino)-6-oxopyridin-3-yl]phenyl]methanesulfonamide] | – | – | – | – | – | – | – | 500 to 5000 nM | > 5000 nM | < 500 nM | > 5 µM
16 | CCS(=O)(=O)c1ccc(O[C@H]2CC[C@H](O)CC2)c(-c2cn(C)c(=O)c3ccccc23)c1 [Example 181, 4-[5-ethylsulfonyl-2-(trans-4-hydroxycyclohexyl)oxyphenyl]-2-methylisoquinolin-1-one] | – | – | < 500 nM | – | < 500 nM | < 500 nM | > 5 µM | – | – | – | –
17 | Cc1cc(-c2cc(NS(C)(=O)=O)ccc2OC2CCCOC2)cn(C)c1=O (stereo not drawn) [Example 446, N-[3-(1,5-dimethyl-6-oxopyridin-3-yl)-4-(oxan-3-yloxy)phenyl] methanesulfonamide] | < 500 nM | < 500 nM | < 500 nM | > 5 µM | – | – | – | – | – | – | –
18 | CCS(=O)(=O)c1ccc(OC)c(-c2cn(C)c(=O)c3ccc(-c4cn[nH]c4)cc23)c1 [Example 210, 4-(5-ethylsulfonyl-2-methoxyphenyl)-2-methyl-6-(1H-pyrazol-4-yl) isoquinolin-1-one] | – | – | < 500 nM | – | < 500 nM | < 500 nM | > 5 µM | – | – | – | –
19 | CCS(=O)(=O)Nc1ccc(O[C@H]2CC[C@H](O)CC2)c(-c2cc(C)c(=O)n(C)c2)c1 [Example 430, N-[3-(1,5-dimethyl-6-oxopyridin-3-yl)-4-(trans-4-hydroxycyclohexyl)oxyphenyl]ethanesulfonamide] | < 500 nM | < 500 nM | < 500 nM | > 5 µM | – | – | – | – | – | – | –
20 | CCn1cc(-c2cc(CS(C)(=O)=O)ccc2Oc2ccc(F)cc2F)cc(C)c1=O [Example 429, 5-[2-(2,4-difluorophenoxy)-5-(methylsulfonylmethyl)phenyl]-1-ethyl-3-methylpyridin-2-one] | < 500 nM | < 500 nM | < 500 nM | > 5 µM | – | – | – | – | – | – | –
21 | CCS(=O)(=O)c1ccc(OCC2CC2)c(-c2cn(C)c(=O)c3c2CCCC3)c1 [Example 219, 4-[2-(cyclopropylmethoxy)-5-ethylsulfonylphenyl]-2-methyl-5,6,7,8-tetrahydroisoquinolin-1-one] | – | – | < 500 nM | – | < 500 nM | < 500 nM | > 5 µM | – | – | – | –
22 | CCS(=O)(=O)c1ccc(OC2CCC(F)(F)CC2)c(-c2cn(C)c(=O)c3cncn23)c1 [Example 373, 5-[2-(4,4-difluorocyclohexyl)oxy-5-ethylsulfonylphenyl]-7-methylimidazo[1,5-a]pyrazin-8-one] | < 500 nM | 500 to 5000 nM | < 500 nM | > 5 µM | – | – | – | – | – | – | –
23 | Cc1cc(-c2cc(N(C3COC3)S(C)(=O)=O)ccc2Oc2ccc(F)cc2F)cn(C)c1=O [Example 230, N-[4-(2,4-difluorophenoxy)-3-(1,5-dimethyl-6-oxopyridin-3-yl)phenyl]-N-(oxetan-3-yl)methanesulfonamide] | – | – | < 500 nM | – | < 500 nM | < 500 nM | > 5 µM | – | – | – | –
24 | CCS(=O)(=O)c1ccc(OCC2CC2)c(-c2cn(C)c(=O)c3sc(C(N)=O)cc23)c1 [Example 265, 4-[2-(cyclopropylmethoxy)-5-ethylsulfonylphenyl]-6-methyl-7-oxothieno[2,3-c]pyridine-2-carboxamide] | – | – | < 500 nM | – | < 500 nM | < 500 nM | > 5 µM | – | – | – | –

From patent US10023592B2, “Bromodomain inhibitors” (Celgene Quanticel Research, Inc., priority 2013, dated 2018)
